Measured values as given in patent publication US20240299414A1, “SUBCUTANEOUS OR INTRAMUSCULAR INJECTION FORMULATIONS OF ILOPROST” (EICOS SCIENCES, INC., priority 2020, published 2024).
Where two headings read alike, the source gives them in different places.

Key:
[1] = PK sub-study of IV iloprost infusion (plasma, LC-MS); type: in vivo, human; conditions: for AUC(0-t) / AUC(0-inf) / Vd / half-life: human, plasma; for AUC(0-t): read-out: AUC0-last, Geometric mean (geometric CV %); for AUC(0-inf): read-out: AUC0-inf, Geometric mean (geometric CV %); for Vd: read-out: Vss, Mean (SD)
Experimental: Eligible subjects were given the option to participate in a PK sub-study. Subjects who participated in the sub-study provided plasma samples for PK analysis. The samples were analyzed for iloprost concentrations using validated liquid chromatography mass spectrometry methods.
The following PK parameters were calculated whenever possible, based on the plasma concentrations of iloprost: • Steady state plasma concentration just before infusion was stopped • Area under the plasma concentration versus time curve (AUC) from time of dosing to the last time point with measurable concentration (AUC0-last) • AUC from time 0 extrapolated to infinity (AUC0-inf) • Percentage of AUC obtained by extrapolation (AUCextrap%) • Terminal elimination constant (λz) • Plasma terminal elimination half-life (t1/2) • Plasma clearance (CL), calculated as dose/AUC0-inf • Volume of distribution (V), calculated as dose/(λz×AUC0-inf)

[2] = Safety and tolerability in the IV iloprost study (adverse events, vital signs, ECG, laboratory); type: in vivo, human
Experimental: On Day 1, study drug was initiated at a starting dose of 0.5 ng/kg/min, and dose increases occurred every 30 minutes (±5 minutes) in increments of 0.5 ng/kg/min up to 2.0 ng/kg/min or the individual tolerated dose. If dose-limiting adverse events (e.g., headache, flushing, jaw pain, myalgia, nausea, or vomiting) occurred that could not be tolerated by the subject, or if the subject experienced symptomatic hypotension, then the dose was reduced in a step-wise manner by 0.5 ng/kg/min every 30 minutes (±5 minutes) until a tolerated dose was determined or the infusion was stopped until the symptoms resolved at which point the study drug was reinitiated at a previously tolerated dose. If symptomatic hypotension or a dose-limiting adverse event occurred during administration of iloprost at the starting dose (i.e., 0.5 ng/kg/min), the infusion was reduced to 0.25 ng/kg/min. If the dose of 0.25 ng/kg/min was not tolerated due to symptomatic hypotension or if a dose-limiting adverse event occurred, the study drug was discontinued, and re-initiation of the infusion could have been attempted after the event had resolved or had been treated. Blood pressure and heart rate were monitored 15 minutes (±5 minutes) prior to and after all dose changes. The maximum tolerated dose was maintained for the remaining 6-hour daily period. At the end of the 6-hour infusion period, the dose was stopped. Subjects were to be monitored for up to 1 hour after completion of study drug infusion (i.e., vital signs were obtained 15 minutes [+5 minutes] and 1 hour [+15 minutes] after completion of the infusion).
Safety parameters included adverse events, physical examination findings, vital sign measurements (heart rate and blood pressure), 12-lead electrocardiogram (ECG) findings, and standard clinical laboratory measurements (chemistry and hematology).

[3] = Heat exposure study (sterilization cycles); type: physicochemical; conditions: pH about 8.0-8.1 versus about 7.0-7.2; light and heat exposure studies
Experimental: Approximately 200 mL of the prepared formulation was filtered through a Millipak 200, 0.22μ filter for light exposure study and heat exposure study (100 mL for each study).
Heat Exposure Study: Approximately 1.1 mL of formulation was placed each into 40 clean 2 cc vials and the vials were capped with 13 mm caps. One set of 20 vials were wrapped with autoclave tape, placed into an autoclave bag and labeled as B1. Another set of 20 vials were wrapped with autoclave tape, placed into an autoclave bag and labeled as B2. All vials were exposed through one sterilization cycle at 121° C. for approximately 30 minutes, then B1 vials were analyzed for pH and assayed by HPLC. The B2 vials were then exposed to a second sterilization cycle at ≥121° C. for ≥15 minutes. The B2 vials were analyzed for pH and assayed by HPLC for iloprost and impurities.

[4] = cited from earlier work
[5] = 1.5 ng/kg, maximum tolerated dose level 1.50 ng/kg/min IV, n = 1
[6] = maximum tolerated dose level 1.00 ng/kg/min IV, n = 1
[7] = maximum tolerated dose level 1.00 ng/kg/min IV, n = 2
[8] = maximum tolerated dose level 2.00 ng/kg/min IV, n = 1
[9] = maximum tolerated dose level 2.00 ng/kg/min IV, n = 4

## CC#CCC(C)[C@H](O)/C=C/[C@@H]1[C@H]2C/C(=C/CCCC(=O)O)C[C@H]2C[C@H]1O (stereo partly drawn) [Iloprost, (5E)-5-[(3aS,4R,5R,6aS)-5-hydroxy-4-[(E,3S)-3-hydroxy-4-methyloct-1-en-6-ynyl]-3,3a,4,5,6,6a-hexahydro-1H-pentalen-2-ylidene]pentanoic acid]
[1]; 0.50 to 2.00 ng/kg/min, exception Css and AUC0-last at 1.50 ng/kg/min
  geometric mean of Css, AUC0-last and AUC0-inf versus dose: increased as dose increased
[1]; 0.5 ng/kg, maximum tolerated dose level 0.50 ng/kg/min IV, n = 1
  AUC(0-t): 0.116 ng·h/mL
[1]; [5]
  AUC(0-inf): 0.603 ng·h/mL
  Vd: 49.3 L
[1]; 1.5 ng/kg, maximum tolerated dose level 1.50 ng/kg/min IV, n = 1, read-out: t1/2, Mean (SD) (converted)
  half-life: 27 min
[1]; 1.5 ng/kg, maximum tolerated dose level 1.50 ng/kg/min IV, n = 2
  AUC(0-t): 0.203 ng·h/mL
[1]; intravenous, range across the 4 dose levels, read-out: mean t½
  half-life: 22.9 to 28.3 min
[1]; [6]
  AUC(0-inf): 0.379 ng·h/mL
  Vd: 62 L
  CLss, Mean (SD): 91.22 (NA) L/h
[1]; maximum tolerated dose level 1.00 ng/kg/min IV, n = 1, read-out: t1/2, Mean (SD) (converted)
  half-life: 24.6 min
[1]; [7]
  AUC(0-t): 0.315 ng·h/mL
  Css, Geometric mean (geometric CV %): 51.31 (20.7) pg/mL
[1]; [8]
  AUC(0-inf): 0.701 ng·h/mL
  Vd: 35.5 L
  CLss, Mean (SD): 64.53 (NA) L/h
[1]; maximum tolerated dose level 2.00 ng/kg/min IV, n = 1, read-out: t1/2, Mean (SD) (converted)
  half-life: 22.9 min
[1]; [9]
  AUC(0-t): 0.478 ng·h/mL
  Css, Geometric mean (geometric CV %): 76.82 (56.9) pg/mL
[1]; maximum tolerated dose level 0.50 ng/kg/min IV, n = 1
  Css, Geometric mean (geometric CV %): 19.60 (NA) pg/mL
[1]; maximum tolerated dose level 1.50 ng/kg/min IV, n = 1
  CLss, Mean (SD): 6.01 (NA) L/h
[1]; maximum tolerated dose level 1.50 ng/kg/min IV, n = 2
  Css, Geometric mean (geometric CV %): 32.90 (284.8) pg/mL
[2]; human, in vivo
  TEAE abdominal pain, n [%]: 4 [23.5%] subjects
  TEAE flushing, n [%]: 5 [29.4%] subjects
  TEAE headache, n [%]: 16 [94.1%] subjects
  TEAE nausea, n [%]: 11 [64.7%] subjects
  subjects who experienced a TEAE, n (%): 17 (100.0%) subjects
  subjects with TEAEs considered severe by the Investigator, n (%): Two (11.8%) subjects
[2]; in vivo
  bradycardia or tachycardia: no bradycardia or tachycardia reported
  changes in chemistry or hematology laboratory values: no clinically significant changes
  hypertensive or hypotensive events: no hypertensive or hypotensive events reported
[2]; whole study
  SAE, AESI, TEAE leading to discontinuation of study drug, or TEAE leading to death: No subjects experienced
[3]
  stability of iloprost versus pH: more stable at higher pH of about 8.0-8.1
[4]; 1 ng/kg/min for 45 minutes
  non-compartmental clearance: 21 mL/min/kg
[4]; 2 ng/kg/min for 4 hours
  non-compartmental clearance: 24 mL/min/kg
[4]; 3 ng/kg/min for 45 minutes
  non-compartmental clearance: 20.6 mL/min/kg
